The subject of one series is Swiss common stock mice. Briefly: Toxicity: lethal dose in mice, intravenous injection. The series is classed as in vivo. The conditions noted are these: 300 μg, adrenalectomised mice. How it is done: The compound according to the invention has been compared with the lipopolysaccharide (LPS) prepared by the phenol-water procedure from S.enteriditis, with regard to their lethal doses (LD).
The method used to carry out these experiments is described by Chedid and al. in Ann. N.Y. Acad. Sci. 133:712, 1966. The tests are made on two month old Swiss common stock mice. The assayed products are administered by intravenous injections.
The compound according to the invention has been compared with the lipopolysaccharide (LPS) prepared by the phenol-water procedure from S.enteriditis with regard to their lethal dose (LD).
The method used to carry out these experiments is described by Chedid and al. in Ann. N.Y. Acad. Sci. 135:712, 1966. The tests are made on two month old Swiss common stock mice. The assayed products are administered by intravenous injection.

Series [1] deals with mice. Briefly: Adjuvanticity in aqueous solution: antibody levels in mice after BSA plus adjuvant in saline (PHA, ABC). To be noted: for antibody ABC Day 14 / antibody ABC Day 28 / antibody PHA Day 14 / antibody PHA Day 28: primary response; for antibody ABC Day 34 / antibody ABC Day 36 / antibody PHA Day 34 / antibody PHA Day 36: secondary response (BSA recall day 30); for adjuvanticity in aqueous solution (antibody titer), in words: administered in saline with BSA, mice. It counts as in vivo. As for the experimental part:
In these experiments, the antibody levels in mice are determined following the injection of various compositions. The injected compositions contain bovine serum albumin (BSA) as antigen and the adjuvant compound according to the invention. The mice used as controls received the BSA and lipopolysaccharides. The compositions are injected in solution in saline. The injected dose of BSA is 0.5 mg per mouse, the recall dose (30 days after the first injection) contains 0.1 mg of BSA. Each tested composition is administered to eight mice. At various time intervals following the injection, the mice are bled to check the antibody level.
The antibody estimation is made either by passive hemagglutination (PHA) using formalinized sheep red blood cells coated with the tested antigen, or according to the method taught by A. A. Hirata and M. W. Brandiss (J. Immunol., 100, 641-648, 1968), or by the so-called antigen binding capacity method as described by P. Minden and S. Farr (Handbook of Exp. Immunol., p. 463, Weir D. M. ed. Blackwell Scientific Pub., Oxford and Edinburgh, 1967). […]
The antibody estimation is made either by passive hemagglutination (PHA) using formalinized sheep red blood cells coated with the tested antigen, or according to method taught by A. A. Hirata and M. W. Brandiss (J. Immunol., 100, 641-648, 1968), or by the so-called antigen binding capacity method described by P. Minden and S. Farr (Handbook of Exp. Immunol., p. 463, Weir D. M. ed. Blackwell Scientific Pub., Oxford and Edinburgh, 1967).

Another series deals with Hartley's guinea pigs. Kind of series: Adjuvanticity with a water in oil emulsion (comparative assay), ovalbumin antigen. The series is classed as in vivo. The conditions noted are these: 50 μg compound with FIA + ovalbumin.
The test system of the next series is Hartley guinea pigs. The conditions noted are these: for immunogenicity, in words: conclusion from skin tests in guinea pigs; for hypersensitivity reaction, in words: guinea pigs treated with FIA + compound.
The test system of series [2] is mice. Kind of series: Reaction to influenza virus: adjuvanticity with influenza vaccine (hemagglutination inhibition). The series is classed as in vivo. The conditions noted are these: vaccine + adjuvant compound versus vaccine only, vaccine recall after 30 days. As for the experimental part:
The adjuvanticity of the Mur-NAc-L-Ala-D-Glu-α-NH2 has been studied against the influenza vaccine on mice. The tested animals are injected with the vaccine and the adjuvant compound whereas controls only received the vaccine. Thirty days later, a recall containing only the vaccine is injected.
It is to be observed that the antibody level is much higher in animals which have received both vaccine and adjuvant compound than in controls. (The measure is made by hemagglutination inhibition following the method proposed by the World Health Organisation Comitee (1953).)

Where [3] appears, read: 100 μg per mouse + BSA in saline.
Where [4] appears, read: 30 μg per mouse + BSA in saline.
Setting [5] is: 300 μg per mouse + BSA in saline.

Entries after “also recorded” stand apart in the source; their conditions may differ. Where only a bound is given, the exact number is not on record here.

Description for Hartley guinea pigs: For comparison, simultaneous tests were carried out with Freund's complete adjuvant (FCA).
Hartley guinea pigs weighing 350 g are skin-tested. […] Forty-eight hours after this second injection, the diameter of reaction is measured (in mm).
The estimation is made as previously described.
Description for Hartley's guinea pigs: As previously, the adjuvanticity is estimated from the increase of the antibody level following an antigen injection. In these experiments, ovalbumin is used as antigen. Assays are carried out on Hartley's guinea pigs weighing 350 g. The animals are injected with 0.1 ml in each posterior footpad. Each dose contains 1 mg ovalbumin and either the Freund's complete adjuvant (FCA) or the Freund's incomplete adjuvant (FIA) or this one with the compound of the invention (50 μg). The antibody titer is estimated 21 days after the injection, by passive hemagglutination as indicated above, or by precipitation according to Folin's method.
A skin test for delayed hypersensitivity is made 18 days after the injection on the same animals. They received 5 μg of ovalbumin by intradermal injection. 48 hours later, the diameter of reaction is measured (in mm).

On to `CC(=O)N[C@H]1C(O)O[C@H](CO)[C@@H](O)[C@@H]1O[C@H](C)C(=O)N[C@@H](C)C(=O)N[C@H](CCC(=O)O)C(=O)O` (stereo partly drawn) [Mur-NAc-L-Ala-D-Glu(OH), 2-(2-acetamido-2-deoxy-3-O-D-glucopyranosyl)-D-propionyl-L-alanyl-D-glutamic acid], for which, in the series with Swiss common stock mice, the survival after injection entry was “All mice survived”. Further, in the series on mice [1] (setting [3]), the “antibody ABC Day 14” value is listed as less than 20, the “antibody ABC Day 28” value is on record as 80, the “antibody PHA Day 14” value was found to be 3 and the “antibody PHA Day 28” value is recorded as 50. Besides, in the series on mice [1] (setting [3]), the “antibody ABC Day 34” value was 320, the “antibody ABC Day 36” value is listed as 630, the “antibody PHA Day 34” value was 400 and the “antibody PHA Day 36” value was 2,130. The “adjuvanticity in aqueous solution (antibody titer), in words” value in the series with mice [1] is on record as “induces an enhancement of the antibody titer”. Also, the “antibody titer against ovalbumin, in words” value with Hartley's guinea pigs is “does not induce an increase of the antibody titer”. In the series with Hartley's guinea pigs (compared with FCA), the “skin test reaction to ovalbumin (delayed hypersensitivity), in words” value is recorded as “light”. Also, in the series on Hartley guinea pigs, the “immunogenicity, in words” value was “not immunogenic” and the “hypersensitivity reaction, in words” value is reported as “no hypersensitivity reaction is observed”.
Turning to `CC(=O)N[C@@H]1[C@@H](O[C@H](C)C(=O)N[C@@H](C)C(=O)N[C@H](CCC(=O)O)C(N)=O)[C@H](O)[C@@H](CO)O[C@H]1O` [Mur-NAc-L-Ala-D-Glu-α-NH2, 2-(2-acetamido-2-deoxy-3-O-D-glucopyranosyl)-D-propionyl-L-alanyl-D-α-isoglutamine], the survival after injection result with Swiss common stock mice was “All the mice survived”. Also, in the series with mice [1] (setting [4]), the “antibody ABC Day 14” value was less than 20, the “antibody ABC Day 28” value worked out at 75, the “antibody PHA Day 14” value is recorded as 3 and the “antibody PHA Day 28” value stood at 25. In the series on mice [1] (setting [4]), the “antibody ABC Day 34” value amounted to 210, the “antibody ABC Day 36” value was 400, the “antibody PHA Day 34” value worked out at 200 and the “antibody PHA Day 36” value is 800. In the series with mice [1] (setting [3]), the “antibody ABC Day 14” value is less than 20, the “antibody ABC Day 28” value came to 82, the “antibody PHA Day 14” value is less than 3 and the “antibody PHA Day 28” value came out at 25. In addition, in the series on mice [1] (setting [3]), the “antibody ABC Day 34” value came out at 270, the “antibody ABC Day 36” value turned out to be 520, the “antibody PHA Day 34” value came out at 400 and the “antibody PHA Day 36” value is listed as 2150. Also, in the series on mice [1] (setting [5]), the “antibody ABC Day 14” value is on record as less than 20, the “antibody ABC Day 28” value is reported as 50, the “antibody PHA Day 14” value is on record as less than 3 and the “antibody PHA Day 28” value was found to be 25. In the series on mice [1] (setting [5]), the “antibody ABC Day 34” value is on record as 230, the “antibody ABC Day 36” value stood at 550, the “antibody PHA Day 34” value stood at 200 and the “antibody PHA Day 36” value came out at 975. Also, the “adjuvanticity in aqueous solution (antibody titer), in words” value in the series on mice [1] is given as “induces an enhancement of the antibody titer that can be compared with the one caused by injecting the LPS; also recorded: high antibody titers were observed”. Moreover, the “antibody level against influenza vaccine (hemagglutination inhibition), in words” value in the series with mice [2] is reported as “much higher”. In addition, in the series on Hartley guinea pigs, the “immunogenicity, in words” value is given as “not immunogenic” and the “hypersensitivity reaction, in words” value is recorded as “no hypersensitivity reaction is observed”.

Source of the values: patent US4158052A, “Oil-free adjuvant compositions containing N-acetyl-muramyl-L-alanyl-D-isoglutamine” (priority 1975, dated 1979).
